The values that follow are results of earlier work, collected in patent US6967218B2, “Pravastatin pharmaceutical formulations and methods of their use” (Biovail Laboratories, Inc., priority 2002, dated 2005).

For data set [1] the following is noted: intravenous, healthy volunteers.
For data set [2] the following is noted: in vivo.
For data set [3] the following is noted: Schalke et al, 1992.

In the case of `CC[C@H](C)C(=O)O[C@H]1C[C@H](O)C=C2C=C[C@H](C)[C@H](CC[C@@H](O)C[C@@H](O)CC(=O)O)[C@H]21` [pravastatin, Pravastatin], in data set [1], the “share of total body clearance by non-renal routes (biliary excretion and biotransformation)” value was 53%; the “share of total body clearance via renal excretion” value is listed as “approximately 47%”. Also, the “decrease of systemic bioavailability after bedtime (PM) dose compared to morning (AM) dose” value (PM vs AM dose) is on record as 60%. In addition, the absolute bioavailability (oral, man) is recorded as 17%. In addition, under “radiolabeled oral dose”, the “fraction of radiolabeled oral dose excreted in feces” value is 70% and the “fraction of radiolabeled oral dose excreted in urine” value is recorded as “Approximately 20%”. Further, in data set [2], the “first-pass extraction ratio in the liver” value is listed as 0.66. The “adverse effect observed in treated patients” value in data set [3] was “Severe myopathy”.
